Source: patent US20100286145A1, “ISOPHTHALAMIDE DERIVATIVES INHIBITING BETA-SECRETASE ACTIVITY” (CoMentis, Inc., priority 2007, published 2010)
Like-named read-outs stand apart in the source and are kept apart here.

Tests used:
[1] = test system: Aβ production in Chinese hamster ovary cells that over-express human APP695 with the London and Swedish mutations; experiment: Cellular Aβ IC50 determination (Aβ40 sandwich ELISA); assay type: cell-based; details: Cricetulus griseus
Protocol: The potency of compounds against memapsin 2 activity was determined in a cellular assay of Aβ production. […] Chinese hamster ovary cells that over-express human APP695 with the London and Swedish mutations were seeded in multi-well plates at 10% confluency. Compounds are dissolved in DMSO to concentrations near 1 mM, and diluted into culture media to a final concentration near 4 μM (final 0.4% DMSO). […] Aliquots were removed and assayed for Aβ40 content using a sandwich ELISA (BioSource International). Amount of Aβ40 over the range of concentration of compounds, relative to control incubations, were fit to a 4-parameter IC50 model.

[2] = target: memapsin 2 (Homo sapiens, UniProt P56817); experiment: Inhibition of memapsin 2 beta-secretase activity (fluorogenic substrate FS-2); assay type: biochemical; details: memapsin 2, pH 4, 37° C., read-out: M2Ki
Chain of memapsin 2 (P56817 46-501): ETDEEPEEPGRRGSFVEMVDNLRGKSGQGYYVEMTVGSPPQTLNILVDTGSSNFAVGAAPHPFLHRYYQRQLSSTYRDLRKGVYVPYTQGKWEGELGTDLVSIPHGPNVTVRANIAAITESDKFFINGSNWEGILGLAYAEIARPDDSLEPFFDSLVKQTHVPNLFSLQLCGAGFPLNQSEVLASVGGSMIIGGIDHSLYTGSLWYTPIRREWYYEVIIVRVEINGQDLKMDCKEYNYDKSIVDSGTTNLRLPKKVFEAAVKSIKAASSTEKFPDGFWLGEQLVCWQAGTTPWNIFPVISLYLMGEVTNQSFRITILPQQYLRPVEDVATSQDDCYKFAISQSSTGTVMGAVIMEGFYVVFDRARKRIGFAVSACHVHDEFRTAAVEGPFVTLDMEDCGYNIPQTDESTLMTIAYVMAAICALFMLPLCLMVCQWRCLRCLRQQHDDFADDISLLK
Summary of the method: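 Memapsin 2 pre-incubated 20 min with compound at pH 4, 37° C, then FS-2 substrate (MCA-SEVNLDAEFK-DNP, APP Swedish cleavage site) added. Rate of fluorescence increase compared with uninhibited controls, fitted to a tight-binding inhibition model.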

[3] = cellular Aβ production, read-out: IC50

SMILES	IC50 [1, 3]	Ki ([2]; 20 minutes pre-incubation)	Ki ([2]; fluorogenic substrate FS-2)	IC50 [1]
CC(=O)c1cccc(CNC[C@@H](O)[C@H](Cc2ccccc2)NC(=O)c2cccc(C(=O)N(C)Cc3nc(C)cs3)c2)c1 [Compound 124, N1-((2S,3R)-4-(3-acetylbenzylamino)-3-hydroxy-1-phenylbutan-2-yl)-N3-methyl-N3-((4-methylthiazol-2-yl)methyl)isophthalamide]	< 1000 nM	< 300 nM	–	–
COc1cccc(CNC[C@@H](O)[C@H](Cc2ccccc2)NC(=O)c2cc(C(=O)NCCO)cc(C(=O)N(C)Cc3nc(C)cs3)c2)c1 [Compound 44, N1-((2S,3R)-3-hydroxy-4-(3-methoxybenzylamino)-1-phenylbutan-2-yl)-N3-(2-hydroxyethyl)-N5-methyl-N5-((4-methylthiazol-2-yl)methyl)benzene-1,3,5-tricarboxamide]	< 1000 nM	< 300 nM	–	–
COc1cccc(CNC[C@@H](O)[C@H](Cc2ccccc2)NC(=O)c2cc(C(=O)N(C)Cc3nc(C)cs3)cc(-c3ccccc3OC)c2)c1 [Compound 210, N3-((2S,3R)-3-hydroxy-4-(3-methoxybenzylamino)-1-phenylbutan-2-yl)-2′-methoxy-N5-methyl-N5-((4-methylthiazol-2-yl)methyl)biphenyl-3,5-dicarboxamide]	< 1000 nM	–	< 300 nM	–
COc1cccc(F)c1CNC[C@@H](O)[C@H](Cc1ccccc1)NC(=O)c1cccc(C(=O)N(C)Cc2nc(C)cs2)c1 [Compound 50, N1-((2S,3R)-4-(2-fluoro-6-methoxybenzylamino)-3-hydroxy-1-phenylbutan-2-yl)-N3-methyl-N3-((4-methylthiazol-2-yl)methyl)isophthalamide]	< 1000 nM	< 300 nM	–	–
COC(=O)Nc1cc(CNC[C@@H](O)[C@H](Cc2ccccc2)NC(=O)c2cccc(C(=O)N(C)Cc3nc(C)cs3)c2)cc(C(C)C)c1 [Compound 202, methyl 3-(((2R,3S)-2-hydroxy-3-(3-(methyl((4-methylthiazol-2-yl)methyl)carbamoyl)benzamido)-4-phenylbutylamino)methyl)-5-isopropylphenylcarbamate]	< 1000 nM	< 300 nM	–	–
Cc1csc(CN(C)C(=O)c2cccc(C(=O)N[C@@H](Cc3ccccc3)[C@H](O)CNCc3cc(Cl)cc(Cl)c3)c2)n1 [Compound 236, N1-((2S,3R)-4-(3,5-dichlorobenzylamino)-3-hydroxy-1-phenylbutan-2-yl)-N3-methyl-N3-((4-methylthiazol-2-yl)methyl)isophthalamide]	< 1000 nM	–	< 300 nM	–
COc1cccc(CNC[C@@H](O)[C@H](Cc2ccccc2)NC(=O)c2cc(C)cc(C(=O)N(Cc3nc(C)cs3)C3CC3)c2)c1 [Compound 9, N1-cyclopropyl-N3-((2S,3R)-3-hydroxy-4-(3-methoxybenzylamino)-1-phenylbutan-2-yl)-5-methyl-N1-((4-methylthiazol-2-yl)methyl)isophthalamide]	< 1000 nM	< 300 nM	–	–
CNS(=O)(=O)c1cc(CNC[C@@H](O)[C@H](Cc2ccccc2)NC(=O)c2cccc(C(=O)N(C)Cc3nc(C)cs3)c2)cc(C(C)C)c1 [Compound 251, N1-((2S,3R)-3-hydroxy-4-(3-isopropyl-5-(N-methylsulfamoyl)benzylamino)-1-phenylbutan-2-yl)-N3-methyl-N3-((4-methylthiazol-2-yl)methyl)isophthalamide]	< 1000 nM	–	< 300 nM	–
COc1cccc(CNC[C@@H](O)[C@H](Cc2ccccc2)NC(=O)c2cc(C(=O)N(C)Cc3nc(C)cs3)cc(N3CCCC3)c2)c1 [Compound 179, N1-((2S,3R)-3-hydroxy-4-(3-methoxybenzylamino)-1-phenylbutan-2-yl)-N3-methyl-N3-((4-methylthiazol-2-yl)methyl)-5-(pyrrolidin-1-yl)isophthalamide]	< 1000 nM	< 300 nM	–	–
Cc1csc(CN(C)C(=O)c2cccc(C(=O)N[C@@H](Cc3ccccc3)[C@H](O)CNCc3ccncc3)c2)n1 [Compound 26, N1-((2S,3R)-3-hydroxy-1-phenyl-4-(pyridin-4-ylmethylamino)butan-2-yl)-N3-methyl-N3-((4-methylthiazol-2-yl)methyl)isophthalamide]	> 5000 nM	> 501 nM	–	–
CNC(=O)c1cc(C(=O)N[C@@H](Cc2ccccc2)[C@H](O)CNCc2cccc(OC)c2)cc(C(=O)N[C@H](C)c2ccccc2)c1 [Compound 94, N1-((2S,3R)-3-hydroxy-4-(3-methoxybenzylamino)-1-phenylbutan-2-yl)-N3-methyl-N5-((R)-1-phenylethyl)benzene-1,3,5-tricarboxamide]	1000 to 5000 nM	> 501 nM	–	–
Cc1csc(CN(C)C(=O)c2cc(C(=O)N[C@@H](Cc3ccccc3)[C@H](O)CNCc3cncc(C(C)C)c3)cc(N3CCCC3=O)c2)n1 [Compound 195, N1-((2S,3R)-3-hydroxy-4-((5-isopropylpyridin-3-yl)methylamino)-1-phenylbutan-2-yl)-N3-methyl-N3-((4-methylthiazol-2-yl)methyl)-5-(2-oxopyrrolidin-1-yl)isophthalamide]	< 1000 nM	< 300 nM	–	–
COc1cccc(C(C)(C)NC[C@@H](O)[C@H](Cc2ccccc2)NC(=O)c2cccc(C(=O)N(C)Cc3nc(C)cs3)c2)c1 [Compound 163, N1-((2S,3R)-3-hydroxy-4-(2-(3-methoxyphenyl)propan-2-ylamino)-1-phenylbutan-2-yl)-N3-methyl-N3-((4-methylthiazol-2-yl)methyl)isophthalamide]	< 1000 nM	< 300 nM	–	–
Cc1csc(CN(C)C(=O)c2cccc(C(=O)N[C@@H](Cc3ccccc3)[C@H](O)CNCc3cncc(C(F)(F)F)c3)c2)n1 [Compound 23, N1-((2S,3R)-3-hydroxy-1-phenyl-4-((5-(trifluoromethyl)pyridin-3-yl)methylamino)butan-2-yl)-N3-methyl-N3-((4-methylthiazol-2-yl)methyl)isophthalamide]	< 1000 nM	< 300 nM	–	–
Cc1cc(C(=O)N[C@@H](Cc2ccccc2)[C@H](O)CNCc2cccc(C(F)(F)F)c2)cc(C(=O)N(C)Cc2nc(C)cs2)c1 [Compound 232, N1-((2S,3R)-3-hydroxy-1-phenyl-4-(3-(trifluoromethyl)benzylamino)butan-2-yl)-N3,5-dimethyl-N3-((4-methylthiazol-2-yl)methyl)isophthalamide]	< 1000 nM	–	< 300 nM	–
COc1cccc(CNC[C@@H](O)[C@H](Cc2ccccc2)NC(=O)c2cc(OC)cc(C(=O)N(Cc3nc(C)cs3)C(C)C)c2)c1 [Compound 25, N1-((2S,3R)-3-hydroxy-4-(3-methoxybenzylamino)-1-phenylbutan-2-yl)-N3-isopropyl-5-methoxy-N3-((4-methylthiazol-2-yl)methyl)isophthalamide]	< 1000 nM	< 300 nM	–	–
Cc1csc(CN(C)C(=O)c2cc(C(=O)N[C@@H](Cc3ccccc3)[C@H](O)CNCc3cncc(C(C)C)c3)cc(-c3ccc(F)nc3)c2)n1 [Compound 259, 5-(6-fluoropyridin-3-yl)-N1-((2S,3R)-3-hydroxy-4-((5-isopropylpyridin-3-yl)methylamino)-1-phenylbutan-2-yl)-N3-methyl-N3-((4-methylthiazol-2-yl)methyl)isophthalamide]	< 1000 nM	–	< 300 nM	–
Cc1csc(CN(C)C(=O)c2cc(C(=O)N[C@@H](Cc3ccccc3)[C@H](O)CNCc3cncc(C(C)C)c3)cc(C(C)C)c2)n1 [Compound 274, N1-((2S,3R)-3-hydroxy-4-((5-isopropylpyridin-3-yl)methylamino)-1-phenylbutan-2-yl)-5-isopropyl-N3-methyl-N3-((4-methylthiazol-2-yl)methyl)isophthalamide]	< 1000 nM	–	< 300 nM	–
Cc1csc(CN(C)C(=O)c2cccc(C(=O)N[C@@H](Cc3ccccc3)[C@H](O)CNCc3cncc(N(C)C)c3)c2)n1 [Compound 47, N1-((2S,3R)-4-((5-(dimethylamino)pyridin-3-yl)methylamino)-3-hydroxy-1-phenylbutan-2-yl)-N3-methyl-N3-((4-methylthiazol-2-yl)methyl)isophthalamide]	< 1000 nM	< 300 nM	–	–
Cc1csc(CN(C)C(=O)c2cccc(C(=O)N[C@@H](Cc3ccccc3)[C@H](O)CNCc3cncc(Cl)c3)c2)n1 [Compound 216, N1-((2S,3R)-4-((5-chloropyridin-3-yl)methylamino)-3-hydroxy-1-phenylbutan-2-yl)-N3-methyl-N3-((4-methylthiazol-2-yl)methyl)isophthalamide]	< 1000 nM	–	< 300 nM	–
Cc1csc(CN(C)C(=O)c2cccc(C(=O)N[C@@H](Cc3ccccc3)[C@H](O)CNCc3cc(OC(=O)N4CCOCC4)cc(C(C)C)c3)c2)n1 [Compound 234, 3-(((2R,3S)-2-hydroxy-3-(3-(methyl((4-methylthiazol-2-yl)methyl)carbamoyl)benzamido)-4-phenylbutylamino)methyl)-5-isopropylphenyl morpholine-4-carboxylate]	–	–	< 300 nM	< 1000 nM
CCN(CC)c1cc(C(=O)N[C@@H](Cc2ccccc2)[C@H](O)CNCc2cncc(C(C)C)c2)cc(C(=O)N(C)Cc2nc(C)cs2)c1 [Compound 172, 5-(diethylamino)-N1-((2S,3R)-3-hydroxy-4-((5-isopropylpyridin-3-yl)methylamino)-1-phenylbutan-2-yl)-N3-methyl-N3-((4-methylthiazol-2-yl)methyl)isophthalamide]	< 1000 nM	< 300 nM	–	–
